# Like-named read-outs stand apart in the source and are kept apart here.
# Key:
# rat Octn2 = molecular target: T1, rat Octn2 (Rattus norvegicus, UniProt O70594); assay: Cellular transport assay, HEK-293 cells expressing rat Octn2; details: Danshen phenolic acid at 100 μM final concentration, 10 min; rat Octn2-transfected vs mock cells
# T1 sequence (O70594 1-557): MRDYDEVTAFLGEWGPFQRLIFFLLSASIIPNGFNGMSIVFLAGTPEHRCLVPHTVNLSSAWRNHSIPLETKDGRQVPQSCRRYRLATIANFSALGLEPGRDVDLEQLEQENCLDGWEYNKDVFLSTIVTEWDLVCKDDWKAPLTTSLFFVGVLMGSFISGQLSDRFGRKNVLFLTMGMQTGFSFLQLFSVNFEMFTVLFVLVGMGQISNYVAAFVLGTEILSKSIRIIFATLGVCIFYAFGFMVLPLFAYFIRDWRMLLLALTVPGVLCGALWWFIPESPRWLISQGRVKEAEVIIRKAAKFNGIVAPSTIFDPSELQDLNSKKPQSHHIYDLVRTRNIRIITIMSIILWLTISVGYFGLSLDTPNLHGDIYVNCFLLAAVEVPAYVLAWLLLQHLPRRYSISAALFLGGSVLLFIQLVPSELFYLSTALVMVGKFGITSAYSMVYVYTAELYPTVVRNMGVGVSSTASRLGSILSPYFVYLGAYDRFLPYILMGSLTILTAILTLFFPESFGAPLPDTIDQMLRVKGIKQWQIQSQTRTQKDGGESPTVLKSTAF
# rat Pept1 [1] = molecular target: T2, rat Pept1 (Rattus norvegicus, UniProt P51574); assay: Cellular transport assay, HEK-293 cells expressing rat Pept1; details: Danshen phenolic acid at 100 μM final concentration, 10 min, incubation pH 6.0; rat Pept1-transfected vs mock cells
# T2 sequence (P51574 1-710): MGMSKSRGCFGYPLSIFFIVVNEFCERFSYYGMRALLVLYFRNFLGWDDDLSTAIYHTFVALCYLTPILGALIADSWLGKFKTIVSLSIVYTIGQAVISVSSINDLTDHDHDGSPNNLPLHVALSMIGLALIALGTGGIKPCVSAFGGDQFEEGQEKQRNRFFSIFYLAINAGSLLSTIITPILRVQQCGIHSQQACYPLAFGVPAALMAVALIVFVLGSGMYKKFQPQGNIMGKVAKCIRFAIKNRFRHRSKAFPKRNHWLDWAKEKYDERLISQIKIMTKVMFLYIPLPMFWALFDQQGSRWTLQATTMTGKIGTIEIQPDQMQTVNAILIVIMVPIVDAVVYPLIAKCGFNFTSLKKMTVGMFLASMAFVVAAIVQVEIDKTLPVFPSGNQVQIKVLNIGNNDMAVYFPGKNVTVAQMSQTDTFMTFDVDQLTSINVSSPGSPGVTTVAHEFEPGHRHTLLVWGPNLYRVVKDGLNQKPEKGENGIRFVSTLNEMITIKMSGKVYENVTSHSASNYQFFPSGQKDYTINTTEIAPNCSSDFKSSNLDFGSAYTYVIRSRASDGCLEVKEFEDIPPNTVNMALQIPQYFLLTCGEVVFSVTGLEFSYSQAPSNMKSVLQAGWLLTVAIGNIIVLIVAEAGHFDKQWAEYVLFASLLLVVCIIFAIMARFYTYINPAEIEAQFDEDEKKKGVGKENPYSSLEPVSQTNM
# human OATP2B1 = molecular target: T3, human OATP2B1 (Homo sapiens, UniProt O94956); assay: Cellular transport assay, HEK-293 cells expressing human OATP2B1; details: Danshen phenolic acid at 100 μM final concentration, 10 min; human OATP2B1-transfected vs mock cells
# T3 sequence (O94956 1-709): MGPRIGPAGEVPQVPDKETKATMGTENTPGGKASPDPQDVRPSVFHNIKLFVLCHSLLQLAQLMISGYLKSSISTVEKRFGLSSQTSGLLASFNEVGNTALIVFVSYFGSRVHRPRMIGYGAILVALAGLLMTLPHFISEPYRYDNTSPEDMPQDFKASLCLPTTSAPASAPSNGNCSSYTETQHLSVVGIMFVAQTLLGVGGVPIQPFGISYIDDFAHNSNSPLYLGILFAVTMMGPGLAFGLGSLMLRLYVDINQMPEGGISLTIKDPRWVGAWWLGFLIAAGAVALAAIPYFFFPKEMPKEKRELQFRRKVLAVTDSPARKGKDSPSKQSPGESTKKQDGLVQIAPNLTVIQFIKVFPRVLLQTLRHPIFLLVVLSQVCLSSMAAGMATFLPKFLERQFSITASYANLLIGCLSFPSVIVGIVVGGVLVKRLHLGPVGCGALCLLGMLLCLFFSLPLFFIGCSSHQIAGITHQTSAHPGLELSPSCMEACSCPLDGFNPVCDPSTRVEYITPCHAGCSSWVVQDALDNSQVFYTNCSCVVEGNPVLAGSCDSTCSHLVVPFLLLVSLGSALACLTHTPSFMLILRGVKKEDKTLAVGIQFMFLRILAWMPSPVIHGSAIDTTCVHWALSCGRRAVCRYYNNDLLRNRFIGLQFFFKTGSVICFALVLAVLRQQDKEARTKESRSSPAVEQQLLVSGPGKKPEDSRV
# human OCT2 = molecular target: T4, human OCT2 (Homo sapiens, UniProt O15244); details: 10 min, 100 μM
# T4 sequence (O15244 1-555): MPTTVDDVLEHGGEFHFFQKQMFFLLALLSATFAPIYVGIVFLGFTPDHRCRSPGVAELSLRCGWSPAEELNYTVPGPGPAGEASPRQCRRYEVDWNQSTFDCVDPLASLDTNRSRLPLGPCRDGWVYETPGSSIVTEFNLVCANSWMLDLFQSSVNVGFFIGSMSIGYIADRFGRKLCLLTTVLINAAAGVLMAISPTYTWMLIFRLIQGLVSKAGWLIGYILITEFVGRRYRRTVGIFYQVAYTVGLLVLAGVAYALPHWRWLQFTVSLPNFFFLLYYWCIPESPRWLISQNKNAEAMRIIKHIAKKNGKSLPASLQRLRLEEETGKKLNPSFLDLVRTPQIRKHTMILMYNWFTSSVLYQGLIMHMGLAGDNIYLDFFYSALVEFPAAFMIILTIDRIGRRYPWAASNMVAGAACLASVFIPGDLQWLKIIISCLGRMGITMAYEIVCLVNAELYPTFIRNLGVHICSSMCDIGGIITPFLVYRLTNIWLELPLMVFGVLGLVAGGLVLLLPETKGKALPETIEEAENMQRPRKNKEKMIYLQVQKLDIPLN
# rat Pept1 [2] = molecular target: T2, rat Pept1; details: 10 min, 100 μM, pH 6
Molecule,TransportTC/TransportMC ratio (net transport ratio) (rat Octn2),TransportTC/TransportMC ratio (net transport ratio) (rat Pept1 [1]),TransportTC/TransportMC ratio (net transport ratio) (human OATP2B1),TransportTC/TransportMC ratio (net transport ratio) (human OCT2),TransportTC/TransportMC ratio (net transport ratio) (rat Pept1 [2])
"O=C(/C=C/c1ccc(O)c2c1[C@H](C(=O)O)[C@@H](c1ccc(O)c(O)c1)O2)O[C@H](Cc1ccc(O)c(O)c1)C(=O)O [Lithospermic acid, lithospermic acid]",0.95 ± 0.11,1.31 ± 0.32,1.16 ± 0.27,–,–
"O=C(O)c1ccc(O)c(O)c1 [Protocatechuic acid, protocatechuic acid]",0.91 ± 0.17,1.37 ± 0.36,1.36 ± 0.15,–,–
"O=C(/C=C/c1ccc(O)c(O)c1)O[C@H](Cc1ccc(O)c(O)c1)C(=O)O [Rosmarinic acid, rosmarinic acid]",–,–,–,0.85 ± 0.29,1.14 ± 0.13
"O=C(/C=C/c1ccc(O)c(O)c1/C=C/c1ccc(O)c(O)c1)O[C@H](Cc1ccc(O)c(O)c1)C(=O)O [Salvianolic acid A, salvianolic acid A]",–,–,–,0.93 ± 0.32,1.32 ± 0.13
"O=C(O)Cc1c(/C=C/C(=O)O[C@H](Cc2ccc(O)c(O)c2)C(=O)O)ccc(O)c1O [Salvianolic acid D, salvianolic acid D]",1.12 ± 0.22,1.43 ± 0.36,2.27 ± 1.16,–,–
salvianolic acid B,1.25 ± 0.21,1.21 ± 0.45,1.32 ± 0.33,–,–

# Reference: article PMC9127186, “Molecular Basis Underlying Hepatobiliary and Renal Excretion of Phenolic Acids of Salvia miltiorrhiza Roots (Danshen)” (Frontiers in Pharmacology, 2022)
